Results reported in patent EP2236511A2, “LIGANDS OF ALPHA-ADRENOCEPTORS AND OF DOPAMINE, HISTAMINE, IMIDAZOLINE AND SEROTONIN RECEPTORS AND THE USE THEREOF” (priority 2007, dated 2009).
pIC50, pKi: −log10 of the molar value. Where two headings read alike, the source gives them in different places.

What was measured:
human D1 receptor = molecular target: T1, human D1 receptor (Homo sapiens, UniProt P21728); test: Radioligand binding to dopamine receptor D1 ([3H] SCH-23390, CHO membranes); conditions: read-out: Dopamine receptors, % inhibition D1
T1 construct: expressed in transfected cells; host or cells: CHO
T1 sequence (P21728 whole entry): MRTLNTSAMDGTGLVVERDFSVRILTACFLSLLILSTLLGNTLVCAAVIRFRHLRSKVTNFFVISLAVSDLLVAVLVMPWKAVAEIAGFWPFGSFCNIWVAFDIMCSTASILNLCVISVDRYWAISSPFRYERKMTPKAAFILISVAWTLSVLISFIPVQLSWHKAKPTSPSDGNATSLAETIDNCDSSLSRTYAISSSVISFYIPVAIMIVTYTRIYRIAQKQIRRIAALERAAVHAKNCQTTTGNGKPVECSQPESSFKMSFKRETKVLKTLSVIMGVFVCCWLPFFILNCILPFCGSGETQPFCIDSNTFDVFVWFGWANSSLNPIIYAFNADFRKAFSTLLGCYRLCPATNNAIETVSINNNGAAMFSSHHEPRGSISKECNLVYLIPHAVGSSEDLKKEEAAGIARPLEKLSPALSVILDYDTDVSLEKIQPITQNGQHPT
From the text: For this purpose sDNA of human D1 receptor is expressed in CHO cells, as it was described in [Dearry A, Gingrich JA, Falardeau P, Fremeau RT Jr, Bates MD and Caron MG. Molecular cloning and expression of the gene for a human D1 dopamine receptor. Nature. […] Nature.

adrenergic receptor α1B = molecular target: T2, adrenergic receptor α1B (Rattus norvegicus, UniProt P15823); test: Radioligand binding to adrenergic receptor α1B ([3H] Prazosin, rat liver membranes); conditions: for inhibition at 10 µM: read-out: α-Adrenoceptor, % inhibition α1B; for nH: Receptor α1B
T2 construct: membrane species from rat liver (rat of Wistar breed) are prepared; from tissue; host or cells: rat (Wistar) liver
T2 sequence (P15823 1-515): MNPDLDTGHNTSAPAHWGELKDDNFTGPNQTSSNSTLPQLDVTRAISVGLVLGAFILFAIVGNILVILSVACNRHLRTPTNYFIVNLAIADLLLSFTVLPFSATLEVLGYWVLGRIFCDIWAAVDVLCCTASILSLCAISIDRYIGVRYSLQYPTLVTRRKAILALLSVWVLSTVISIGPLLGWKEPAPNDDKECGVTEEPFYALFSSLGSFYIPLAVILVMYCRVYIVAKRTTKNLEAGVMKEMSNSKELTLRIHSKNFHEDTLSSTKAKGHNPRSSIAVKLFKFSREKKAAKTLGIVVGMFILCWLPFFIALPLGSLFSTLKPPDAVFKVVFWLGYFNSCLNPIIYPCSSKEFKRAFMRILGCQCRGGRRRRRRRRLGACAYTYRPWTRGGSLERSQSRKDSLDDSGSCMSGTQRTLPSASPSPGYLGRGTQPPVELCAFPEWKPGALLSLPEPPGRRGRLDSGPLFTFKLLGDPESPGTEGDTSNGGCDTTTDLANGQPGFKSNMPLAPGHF
From the text: Species heterogeneity of hepatic α1A-, α1B-, and α1C-subtypes. Biochem Biophys Res Commun. […] Prazosin is used as positive control.

human D3 receptor = molecular target: T3, human D3 receptor (Homo sapiens, UniProt P35462); test: Radioligand binding to dopamine receptor D3 ([3H] Spiperone, CHO membranes); conditions: read-out: Dopamine receptors, % inhibition D3
T3 construct: expressed in transfected cells; host or cells: CHO
T3 sequence (P35462 whole entry): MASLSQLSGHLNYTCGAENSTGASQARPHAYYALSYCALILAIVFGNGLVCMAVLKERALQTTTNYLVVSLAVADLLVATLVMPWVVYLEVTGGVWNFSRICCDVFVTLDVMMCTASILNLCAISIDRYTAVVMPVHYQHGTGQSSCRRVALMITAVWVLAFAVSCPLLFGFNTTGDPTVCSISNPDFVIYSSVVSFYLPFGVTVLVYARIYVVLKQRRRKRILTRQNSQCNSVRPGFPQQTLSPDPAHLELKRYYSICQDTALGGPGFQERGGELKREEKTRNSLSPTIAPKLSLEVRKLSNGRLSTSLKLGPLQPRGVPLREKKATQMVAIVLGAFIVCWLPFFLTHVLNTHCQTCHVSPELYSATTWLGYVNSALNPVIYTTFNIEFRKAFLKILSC
From the text: For this purpose sDNA of human D3 receptor is expressed in CHO cells, as it was described in [Sokoloff P, Giros B, Martres M-P, Bouthenet M-L and Schwartz J-C. Molecular cloning and characterization of novel dopamine receptor (D3) as target for neuroleptics. Nature. […] Molecular cloning and characterization of novel dopamine receptor (D3) as target for neuroleptics. Nature. […] Spiperone is used as positive control.

imidazoline receptor I2 = test: Radioligand binding to imidazoline receptor I2 ([3H] Idazoxan, rat brain membranes); conditions: for % inhibition: 10 µM ligand
Method: For this purpose membrane species are prepared from rat (Wistar) brain homogenates by homogenization of them in glass homogenizer with the subsequent separation of plasmatic membranes from cell nuclei, mitochondrias and cell wreckages by differential centrifugation. […] After incubation the samples are filtered in vacuo on glass-microfiber filters G/F (Millipor, USA), filters are washed three times with cold solution of medium and radioactivity is measured by scintillation counter MicroBeta 340 (Perkin Elmer, USA). […] Idazoxan is used as positive control.
The tested compounds' binding to the receptor is determined by their ability to displace the radioligand and expressed in percent of displacement (%I). Values of %I are calculated according to the following equation: %I = (TA-CA)/(TA-NA)*100, [formula] wherein: TA - is the overall radioactivity in the presence of radioligand only, CA - is the radioactivity in the presence of radioligand and tested compound and NA - is a radioactivity in the presence of radioligand and Idazoxan (1 µM).

human D4.2 receptor = molecular target: T4, human D4.2 receptor (Homo sapiens, UniProt P21917, DEL265-296); test: Radioligand binding to dopamine receptor D4.2 ([3H] Spiperone, CHO-K1 membranes); conditions: read-out: Dopamine receptors, % inhibition D4.2
T4 construct: expressed in transfected cells; host or cells: CHO-K1
T4 sequence (P21917 with tags, fused parts or gaps DEL265-296): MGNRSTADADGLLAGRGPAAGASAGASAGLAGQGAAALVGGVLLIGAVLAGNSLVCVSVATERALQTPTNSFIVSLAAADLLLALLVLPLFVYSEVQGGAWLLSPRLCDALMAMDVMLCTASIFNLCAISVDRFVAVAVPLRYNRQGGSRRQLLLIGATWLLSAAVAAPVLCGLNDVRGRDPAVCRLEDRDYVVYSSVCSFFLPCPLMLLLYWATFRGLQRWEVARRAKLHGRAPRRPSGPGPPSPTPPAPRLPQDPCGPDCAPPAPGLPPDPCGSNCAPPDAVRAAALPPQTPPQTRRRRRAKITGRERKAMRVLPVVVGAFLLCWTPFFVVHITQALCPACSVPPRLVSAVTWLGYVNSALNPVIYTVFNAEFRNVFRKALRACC
Method: Screening of the disclosed compounds for potential ability to interact with dopamine receptor D4.2 is carried out by method of radioligand binding. […] From the cells transfected in this way membrane species are prepared by homogenization of these cells in glass homogenizer with the subsequent separation of plasmatic membranes from cell nuclei, mitochondrias and cell wreckages by differential centrifugation. […] After incubation samples are filtered in vacuo on glass-microfiber filters G/F (Millipor, USA), filters are washed three times with cold solution of medium and radioactivity is measured by scintillation counter MicroBeta 340 (Perkin Elmer, USA). Nonspecific binding which makes up 10% of the overall binding is determined by incubation of membrane species with radioligand in the presence of 10 µM of Haloperidol.
Spiperone is used as positive control. Tested compounds' binding to the receptor is determined by their ability to displace radioligand and expressed in percent of displacement (%I). Values of %I are calculated according to the following equation: %I = (TA-CA)/(TA-NA)*100, [formula] wherein: TA - is overall radioactivity in the presence of radioligand only, CA - is radioactivity in the presence of radioligand and tested compound and NA - is radioactivity in the presence of radioligand and Haloperidol (10 µM).

[1] = molecular target: T5, recombinant human 5-HT2C receptor (Homo sapiens, UniProt P28335); test: Radioligand binding to serotonin receptor 5-HT2C ([3H] Mesulergine, CHO-K1 membranes)
T5 construct: expressed in transfected cells; host or cells: CHO-K1
T5 sequence (P28335 33-458): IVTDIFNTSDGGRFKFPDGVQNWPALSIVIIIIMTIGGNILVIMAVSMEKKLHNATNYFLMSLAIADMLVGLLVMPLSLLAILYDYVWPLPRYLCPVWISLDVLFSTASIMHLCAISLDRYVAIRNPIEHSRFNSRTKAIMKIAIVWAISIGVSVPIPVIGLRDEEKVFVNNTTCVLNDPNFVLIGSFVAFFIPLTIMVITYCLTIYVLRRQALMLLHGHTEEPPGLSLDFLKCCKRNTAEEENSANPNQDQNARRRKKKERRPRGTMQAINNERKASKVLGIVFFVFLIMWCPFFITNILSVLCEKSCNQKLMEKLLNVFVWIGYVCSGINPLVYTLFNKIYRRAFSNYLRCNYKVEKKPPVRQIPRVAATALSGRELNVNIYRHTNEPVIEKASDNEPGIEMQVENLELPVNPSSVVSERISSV
From the text: J Neurochem. 69: 1449 - 1458, 1997]. […] SB242084 is used as positive control.

human H1 receptor = molecular target: T6, human H1 receptor (Homo sapiens, UniProt P35367); test: Radioligand binding to histamine receptor H1 ([3H] Pyrilamine, CHO-K1 membranes)
T6 construct: expressed in transfected cells; host or cells: CHO-K1
T6 sequence (P35367 whole entry): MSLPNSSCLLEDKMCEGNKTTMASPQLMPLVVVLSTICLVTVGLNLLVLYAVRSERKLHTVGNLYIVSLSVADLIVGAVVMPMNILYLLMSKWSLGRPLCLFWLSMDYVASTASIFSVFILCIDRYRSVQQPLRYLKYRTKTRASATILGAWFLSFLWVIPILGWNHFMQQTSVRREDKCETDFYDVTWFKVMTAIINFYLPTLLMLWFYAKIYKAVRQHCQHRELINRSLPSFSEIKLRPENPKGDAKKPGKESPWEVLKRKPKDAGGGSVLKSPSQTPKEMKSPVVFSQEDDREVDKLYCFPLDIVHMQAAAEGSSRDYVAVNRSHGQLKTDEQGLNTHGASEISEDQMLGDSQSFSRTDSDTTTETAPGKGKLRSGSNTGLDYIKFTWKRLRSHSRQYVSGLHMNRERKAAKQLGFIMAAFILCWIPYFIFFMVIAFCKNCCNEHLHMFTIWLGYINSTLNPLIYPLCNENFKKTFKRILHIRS
From the text: Biochem Biophys Res Comm. 197(3): 1601-1608, 1993]. […] Biochem Biophys Res Comm. 197(3): 1601-1608, 1993].
Pyrilamine is used as positive control.

[2] = molecular target: T7, recombinant human 5-HT2A receptor (Homo sapiens, UniProt P28223); test: Radioligand binding to serotonin receptor 5-HT2A ([3H] Ketanserin, CHO-K1 membranes); conditions: 10 µM ligand
T7 construct: expressed in transfected cells; host or cells: CHO-K1
T7 sequence (P28223 whole entry): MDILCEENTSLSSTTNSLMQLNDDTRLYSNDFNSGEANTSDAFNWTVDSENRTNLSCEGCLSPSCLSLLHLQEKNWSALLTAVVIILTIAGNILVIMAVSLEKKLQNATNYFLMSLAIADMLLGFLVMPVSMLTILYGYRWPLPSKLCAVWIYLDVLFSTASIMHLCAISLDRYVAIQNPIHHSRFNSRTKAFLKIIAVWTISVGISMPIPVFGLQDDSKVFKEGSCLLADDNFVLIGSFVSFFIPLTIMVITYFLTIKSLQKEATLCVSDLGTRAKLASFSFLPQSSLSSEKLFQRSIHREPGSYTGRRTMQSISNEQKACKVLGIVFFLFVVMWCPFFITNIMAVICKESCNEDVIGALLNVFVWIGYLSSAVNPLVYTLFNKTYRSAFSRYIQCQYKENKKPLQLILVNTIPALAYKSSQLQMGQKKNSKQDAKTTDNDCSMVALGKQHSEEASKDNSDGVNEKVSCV
From the text: 9-C. […] J Neurochem. […] Ketanserin is used as positive control.

[3] = molecular target: T8, serotonin receptor 5-HT1B (Rattus norvegicus, UniProt P28564); test: Radioligand binding to serotonin receptor 5-HT1B ([125I] cyanopindolol, rat brain cortex membranes)
T8 construct: membrane species are prepared from rat brains (Wistar) by homogenization of species of rat brain-cortices; from tissue; host or cells: rat (Wistar) brain cortex
T8 sequence (P28564 whole entry): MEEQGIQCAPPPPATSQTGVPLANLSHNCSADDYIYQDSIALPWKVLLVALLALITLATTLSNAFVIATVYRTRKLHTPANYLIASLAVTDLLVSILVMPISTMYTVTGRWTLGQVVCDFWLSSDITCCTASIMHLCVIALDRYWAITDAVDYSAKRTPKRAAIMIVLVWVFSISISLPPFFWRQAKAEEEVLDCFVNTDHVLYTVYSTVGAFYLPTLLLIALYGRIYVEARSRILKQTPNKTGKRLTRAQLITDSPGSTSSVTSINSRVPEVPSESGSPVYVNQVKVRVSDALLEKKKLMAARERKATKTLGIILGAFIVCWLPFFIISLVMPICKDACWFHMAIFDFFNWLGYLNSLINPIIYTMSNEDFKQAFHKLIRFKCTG
From the text: Serotonin is used as positive control.

human 5-HT7 receptor = molecular target: T9, human 5-HT7 receptor (Homo sapiens, UniProt P34969); test: Radioligand binding to serotonin receptor 5-HT7 ([3H] Lysergic acid diethylamide, CHO membranes); conditions: 10 µM ligand
T9 construct: expressed in transfected cells; host or cells: CHO
T9 sequence (P34969 whole entry): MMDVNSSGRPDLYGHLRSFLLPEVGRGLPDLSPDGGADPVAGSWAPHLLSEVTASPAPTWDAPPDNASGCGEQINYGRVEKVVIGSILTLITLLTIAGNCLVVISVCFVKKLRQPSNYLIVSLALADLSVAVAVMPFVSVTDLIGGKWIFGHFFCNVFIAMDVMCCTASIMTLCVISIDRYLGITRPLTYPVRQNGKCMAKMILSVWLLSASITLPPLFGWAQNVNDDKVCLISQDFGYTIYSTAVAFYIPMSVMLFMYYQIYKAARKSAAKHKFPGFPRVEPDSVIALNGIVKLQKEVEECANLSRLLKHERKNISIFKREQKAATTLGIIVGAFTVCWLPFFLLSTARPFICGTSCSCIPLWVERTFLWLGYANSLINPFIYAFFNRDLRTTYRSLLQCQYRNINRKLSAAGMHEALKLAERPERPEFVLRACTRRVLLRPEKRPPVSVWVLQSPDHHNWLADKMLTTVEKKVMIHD
From the text: For this purpose sDNA of human 5-HT7 receptor is expressed in CHO cells as it was described in [Shen Y, Monsma FJ Jr, Metcalf MA, Jose PA, Hamblin MW, and Sibley DR. […] J. Biol. Chem. 1993, 268, 18200 - 18204]. […] J. Pharmacol. Exp. Ther. 1994, 268:1403-1410]. […] Methiothepin is used as positive control.

Row | SMILES | inhibition at 10 µM (human D1 receptor) [%] | inhibition at 10 µM (adrenergic receptor α1B) [%] | % inhibition (imidazoline receptor I2) [%] | inhibition at 1 µM ([1]; read-out: 5-HT2C % inhibition) [%] | nH (adrenergic receptor α1B) | 5-HT2A % inhibition [2] [%] | 5-HT1B % inhibition ([3]; 10 µM ligand) [%] | 5-HT7 % inhibition (human 5-HT7 receptor) [%] | further results
1 | Cc1ccc2c(c1)[C@@H]1CN(C)CCC[C@@H]1N2CCc1cccnc1 (relative stereo) [1.6.1(1)·3HCl] | 59 | 94 | 80 | 95 | – | – | – | – | inhibition at 10 µM (human D3 receptor): 34%; inhibition at 10 µM (human D4.2 receptor): -6%; inhibition at 10 µM (human H1 receptor; read-out: Histamine receptors, % inhibition H1, 10 µM ligand): 100%
2 | Cc1ccc(CCn2c3c(c4cc(C)ccc42)CN(C)CC3)cc1 [1.1.2(1-3), 2,8-dimethyl-5-[2-(4-methylphenyl)-ethyl]-1,2,3,4-tetrahydro-1H-pyrido[4,3-b]indole] | – | – | 93 | – | 1,13 | 98 | 59 | 98 | 5-HT2C % inhibition ([1]; 10 µM ligand): 98%
3 | Cc1ccc2c(c1)c1c(n2CCc2ccc(C)nc2)CCN(C)C1 [1.1.2(4-2)·2HCl] | – | – | 98 | – | 1.54 | – | – | – | inhibition at 10 µM (human D1 receptor; 10 µM ligand): 82%; inhibition at 10 µM (adrenergic receptor α1B; 10 µM ligand): 101%; inhibition at 10 µM (human D3 receptor; 10 µM ligand): 64%; pIC50 (imidazoline receptor I2): 6.51; pKi (imidazoline receptor I2): 6.68; inhibition at 10 µM (human D4.2 receptor; 10 µM ligand): 54%; inhibition at 10 µM ([3]; 10 µM ligand, read-out: 5-HT1B % inhibition): 19%; inhibition at 10 µM (human 5-HT7 receptor; read-out: 5-HT7 % inhibition): 96%; inhibition at 10 µM ([1]; 10 µM ligand, read-out: 5-HT2C % inhibition): 76%; inhibition at 10 µM (human H1 receptor; 10 µM ligand, read-out: Histamine receptors, % inhibition H1): 100%; nH (human H1 receptor; histamine H1 receptors): 1.01
4 | Cc1ccc2c(c1)c1c(n2CCc2ccccn2)CCN(C)C1 [1.1.2(2-3)·2HCl] | 70 | 98 | 88 | 96 | – | – | – | – | inhibition at 3 µM (human D3 receptor): 78%; inhibition at 100 µM (human D4.2 receptor): 71%; inhibition at 1 µM ([3]; read-out: 5-HT1B % inhibition): 65%
5 | Cc1ccc2c(c1)c1c(n2CCc2ccccn2)CCCN(C)C1 [1.2.2(2-2)] | – | – | 80 | – | – | 46 | 6 | 74 | α-Adrenoceptor, % inhibition α1B (adrenergic receptor α1B; 10 µM ligand): 80%
